Reference: US12011444B2, “N-substituted indole derivatives as PGE2 receptor modulators” (Idorsia Pharmaceuticals Ltd, priority 2015, dated 2024)

Columns and labels:
PTGER2 (EP2) = PTGER2 (EP2) (Homo sapiens (Human), UniProt P43116); assay: hEP2 b-arrestin assay (PathHunter HEK 293 PTGER2 b-arrestin cells); assay type: cell-based
How it was run: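 HEK293 cells expressing ProLink-tagged EP2 and EA-fused β-arrestin 2 (enzyme fragment complementation) were seeded 24 h, pre-incubated with compound 15 min at 37 °C, then stimulated with 5 μM PGE2 (final) for 120 min.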

PTRGER4 (EP4) = PTRGER4 (EP4) (Homo sapiens (Human), UniProt P35408); assay: hEP4 b-arrestin assay (PathHunter HEK 293 PTGER4 b-arrestin cells); assay type: cell-based
How it was run: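 Stably transfected HEK293 cells carrying EP4–ProLink and β-arrestin 2–EA (β-gal fragment complementation), pre-incubated with compound 15 min at 37 °C, then stimulated with PGE2 (20 nM final) for 120 min at 37 °C. Chemiluminescence read after 1 h detection reagent at room temperature; activity per concentration expressed as percent of DMSO control.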

[1] = hEP2 b-arrestin assay (values without asterisk)
[2] = hEP4 b-arrestin assay (values without asterisk)
[3] = antagonistic activity on hEP2, mean where measured multiple times
[4] = antagonistic activity on hEP4, mean where measured multiple times

PTRGER4 (EP4), sequence (P35408 whole entry, looked up, the tested form may be a part): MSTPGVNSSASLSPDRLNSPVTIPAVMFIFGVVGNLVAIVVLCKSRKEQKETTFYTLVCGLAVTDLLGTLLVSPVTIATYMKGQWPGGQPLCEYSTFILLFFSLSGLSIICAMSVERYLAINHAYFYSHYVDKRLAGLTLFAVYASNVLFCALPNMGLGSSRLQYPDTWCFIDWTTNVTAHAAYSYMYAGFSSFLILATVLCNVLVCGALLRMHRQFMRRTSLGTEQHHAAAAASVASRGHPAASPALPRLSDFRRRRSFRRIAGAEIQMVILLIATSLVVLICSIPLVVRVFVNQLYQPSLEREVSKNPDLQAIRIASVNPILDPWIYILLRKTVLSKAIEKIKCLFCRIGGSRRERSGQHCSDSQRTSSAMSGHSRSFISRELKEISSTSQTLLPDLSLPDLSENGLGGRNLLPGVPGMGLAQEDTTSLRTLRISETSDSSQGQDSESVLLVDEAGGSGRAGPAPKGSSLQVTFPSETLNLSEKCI
PTGER2 (EP2), sequence (P43116 whole entry, the tested form may be a part): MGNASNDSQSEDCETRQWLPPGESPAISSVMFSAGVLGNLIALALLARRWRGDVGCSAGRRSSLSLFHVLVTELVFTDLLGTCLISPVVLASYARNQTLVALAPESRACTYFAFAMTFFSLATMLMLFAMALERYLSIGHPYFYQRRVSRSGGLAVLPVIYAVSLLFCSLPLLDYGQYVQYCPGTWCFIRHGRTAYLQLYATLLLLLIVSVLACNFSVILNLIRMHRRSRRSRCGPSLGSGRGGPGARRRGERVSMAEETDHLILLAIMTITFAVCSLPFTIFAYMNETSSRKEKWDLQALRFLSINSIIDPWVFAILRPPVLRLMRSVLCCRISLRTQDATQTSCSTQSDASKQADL

| Structure (SMILES) | IC50 (PTGER2 (EP2); [1]) [µM] | IC50 (PTRGER4 (EP4); [2]) [µM] | IC50 (PTGER2 (EP2); [3]) [µM] | IC50 (PTRGER4 (EP4); [4]) [µM] |
| --- | --- | --- | --- | --- |
| CCOc1cc(-c2cc(NCCn3c(C#N)cc4c(OC)ccc(F)c43)ncn2)sc1C(=O)Oc1ccccc1 [Example 1049, 5-{6-[2-(2-Cyano-7-fluoro-4-methoxy-indol-1-yl)-ethylamino]-pyrimidin-4-yl}-3-ethoxy-thiophene-2-carboxylic acid phenyl ester] | 0.021 | 0.01 | – | – |
| CCOC(=O)C#Cc1ccc(-c2cc(NCCn3c(C#N)cc4c(OC)ccc(F)c43)ncn2)cc1OC [Example 1050, (4-{6-[2-(2-Cyano-7-fluoro-4-methoxy-indol-1-yl)-ethylamino]-pyrimidin-4-yl}-2-methoxy-phenyl)-propynoic acid ethyl ester] | 0.034 | 0.019 | – | – |
| CCOc1cc(-c2cc(NCCn3c(C)cc4c(OC)ccc(F)c43)ncn2)sc1-c1nnn[nH]1 [Example 1051, {6-[4-Ethoxy-5-(1H-tetrazol-5-yl)-thiophen-2-yl]-pyrimidin-4-yl}-[2-(7-fluoro-4-methoxy-2-methyl-indol-1-yl)-ethyl]-amine] | 0.002 | 0.004 | – | – |
| CCOc1cc(-c2cc(NCCn3c(C)cc4c(OC)ccc(F)c43)ncn2)sc1C(=N)NO [Example 1052, 3-Ethoxy-5-{6-[2-(7-fluoro-4-methoxy-2-methyl-indol-1-yl)-ethylamino]-pyrimidin-4-yl}-N-hydroxy-thiophene-2-carboxamidine] | 0.003 | 0.007 | – | – |
| CCOc1cc(-c2cc(NCCn3c(C)cc4c(OC)ccc(F)c43)ncn2)sc1C(C)O (centres unmarked) [Example 1053, 1-(3-Ethoxy-5-{6-[2-(7-fluoro-4-methoxy-2-methyl-indol-1-yl)-ethylamino]-pyrimidin-4-yl}-thiophen-2-yl)-ethanol] | 0.01 | 0.1 | – | – |
| CCOc1cc(-c2cc(NCCn3c(C)cc4c(OC)ccc(F)c43)ncn2)sc1-c1noc(=O)[nH]1 [Example 1054, 3-(3-Ethoxy-5-{6-[2-(7-fluoro-4-methoxy-2-methyl-indol-1-yl)-ethylamino]-pyrimidin-4-yl}-thiophen-2-yl)-[1,2,4]oxadiazol-5(4H)-one] | 0.001 | 0.001 | – | – |
| COc1ccc(F)c2c1cc(C#N)n2CCNc1cc(-c2ccc(C3(F)COC3)s2)ncn1 [Example 1055, 7-Fluoro-1-(2-{6-[5-(3-fluoro-oxetan-3-yl)-thiophen-2-yl]-pyrimidin-4-ylamino}-ethyl)-4-methoxy-1H-indole-2-carbonitrile] | 0.249 | 0.06 | – | – |
| COC(=O)N(C)c1ccc(-c2cc(NCCn3c(C#N)cc4c(OC)ccc(F)c43)ncn2)cc1 [Example 1056, (4-{6-[2-(2-Cyano-7-fluoro-4-methoxy-indol-1-yl)-ethylamino]-pyrimidin-4-yl}-phenyl)-methyl-carbamic acid methyl ester] | 0.12 | 0.119 | – | – |
| CCOc1cc(-c2cc(NCCn3c(C)c(F)c4c(OC)ccc(F)c43)ncn2)sc1C(=O)O [Example 1057, 5-{6-[2-(3,7-Difluoro-4-methoxy-2-methyl-indol-1-yl)-ethylamino]-pyrimidin-4-yl}-3-ethoxy-thiophene-2-carboxylic acid] | 0.006 | 0.009 | – | – |
| COc1ccc(F)c2c1c(F)c(C)n2CCNc1cc(-c2cc(C(F)(F)F)c(C(=O)O)s2)ncn1 [Example 1058, 5-{6-[2-(3,7-Difluoro-4-methoxy-2-methyl-indol-1-yl)-ethylamino]-pyrimidin-4-yl}-3-trifluoromethyl-thiophene-2-carboxylic acid] | 0.051 | 0.019 | – | – |
| COc1ccc(F)c2c1c(F)c(C#N)n2CCNc1cc(-c2cc(C(F)(F)F)c(C(=O)O)s2)ncn1 [Example 1059, 5-{6-[2-(2-Cyano-3,7-difluoro-4-methoxy-indol-1-yl)-ethylamino]-pyrimidin-4-yl}-3-trifluoromethyl-thiophene-2-carboxylic acid] | 0.054 | 0.003 | – | – |
| COc1ccc(F)c2c1cc(C)n2CCNc1cc(-c2cc(C(F)(F)F)c(-c3nn[nH]n3)s2)ncn1 [Example 1060, [2-(7-Fluoro-4-methoxy-2-methyl-indol-1-yl)-ethyl]-{6-[5-(2H-tetrazol-5-yl)-4-trifluoromethyl-thiophen-2-yl]-pyrimidin-4-yl}-amine] | 0.017 | 0.036 | – | – |
| COc1ccc(F)c2c1cc(C)n2CCNc1cc(-c2cc(C(F)(F)F)c(C(=N)NO)s2)ncn1 [Example 1061, 5-{6-[2-(7-Fluoro-4-methoxy-2-methyl-indol-1-yl)-ethylamino]-pyrimidin-4-yl}-N-hydroxy-3-trifluoromethyl-thiophene-2-carboxamidine] | 0.019 | 0.036 | – | – |
| COc1ccc(F)c2c1cc(C)n2CCNc1cc(-c2cc(C(F)(F)F)c(-c3noc(=O)[nH]3)s2)ncn1 [Example 1062, 3-(5-{6-[2-(7-Fluoro-4-methoxy-2-methyl-indol-1-yl)-ethylamino]-pyrimidin-4-yl}-3-trifluoromethyl-thiophen-2-yl)-[1,2,4]oxadiazol-5(4H)-one] | 0.033 | 0.013 | – | – |
| COc1ccc(F)c2c1cc(C#N)n2CCNc1cc(-c2ccc3c(=O)[nH][nH]c(=O)c3c2)ncn1 [Example 1064, 1-{2-[6-(1,4-Dioxo-1,2,3,4-tetrahydro-phthalazin-6-yl)-pyrimidin-4-ylamino]-ethyl}-7-fluoro-4-methoxy-1H-indole-2-carbonitrile] | 0.025 | 0.151 | – | – |
| COc1ccc(F)c2c1cc(C)n2CCNc1cc(-c2cc(-c3ccccn3)c(C(=O)O)s2)ncn1 [Example 1066, 5-{6-[2-(7-Fluoro-4-methoxy-2-methyl-indol-1-yl)-ethylamino]-pyrimidin-4-yl}-3-pyridin-2-yl-thiophene-2-carboxylic acid] | 0.003 | 0.048 | – | – |

| Structure (SMILES) | IC50 (PTGER2 (EP2); [1]) [µM] | IC50 (PTRGER4 (EP4); [2]) [µM] | IC50 (PTGER2 (EP2); [3]) [µM] | IC50 (PTRGER4 (EP4); [4]) [µM] |
| --- | --- | --- | --- | --- |
| CCNc1csc(-c2cc(NCCn3c(C)cc4c(OC)ccc(F)c43)ncn2)c1 [Example 1067, [6-(4-Ethylamino-thiophen-2-yl)-pyrimidin-4-yl]-[2-(7-fluoro-4-methoxy-2-methyl-indol-1-yl)-ethyl]-amine] | 0.088 | 0.067 | – | – |
| CCNc1csc(-c2cc(NCCn3c(C)cc4c(C)ccc(F)c43)ncn2)c1 [Example 1068, [6-(4-Ethylamino-thiophen-2-yl)-pyrimidin-4-yl]-[2-(7-fluoro-2,4-dimethyl-indol-1-yl)-ethyl]-amine] | 0.01 | 0.015 | – | – |
| CCNc1csc(-c2cc(NCCn3c(C)cc4c(C)cc(F)cc43)ncn2)c1 [Example 1069, [6-(4-Ethylamino-thiophen-2-yl)-pyrimidin-4-yl]-[2-(6-fluoro-2,4-dimethyl-indol-1-yl)-ethyl]-amine] | 0.009 | 0.041 | – | – |
| CCNc1csc(-c2cc(NCCn3c(C)cc4c(OC)cc(F)cc43)ncn2)c1 [Example 1070, [6-(4-Ethylamino-thiophen-2-yl)-pyrimidin-4-yl]-[2-(6-fluoro-4-methoxy-2-methyl-indol-1-yl)-ethyl]-amine] | 0.01 | 0.018 | – | – |
| CCN(C=O)c1csc(-c2cc(NCCn3c(C)cc4c(OC)ccc(F)c43)ncn2)c1 [Example 1071, N-Ethyl-N-(5-{6-[2-(7-fluoro-4-methoxy-2-methyl-indol-1-yl)-ethylamino]-pyrimidin-4-yl}-thiophen-3-yl)-formamide] | 0.023 | 0.04 | – | – |
| CCOc1cc(-c2cc(NCCn3c(C)cc4c(OC)ccc(F)c43)ncn2)sc1NC=O [Example 1072, N-(3-Ethoxy-5-{6-[2-(7-fluoro-4-methoxy-2-methyl-indol-1-yl)-ethylamino]-pyrimidin-4-yl}-thiophen-2-yl)-formamide] | 0.003 | 0.017 | – | – |
| CCOc1cc(-c2cc(NCCn3c(C)cc4c(OC)ccc(F)c43)ncn2)sc1NC(=O)CC [Example 1073, N-(3-Ethoxy-5-{6-[2-(7-fluoro-4-methoxy-2-methyl-indol-1-yl)-ethylamino]-pyrimidin-4-yl}-thiophen-2-yl)-propionamide] | 0.007 | 0.014 | – | – |
| CCOc1cc(-c2cc(NCCn3c(C)cc4c(OC)ccc(F)c43)ncn2)sc1NC(=O)CCO [Example 1074, N-(3-Ethoxy-5-{6-[2-(7-fluoro-4-methoxy-2-methyl-indol-1-yl)-ethylamino]-pyrimidin-4-yl}-thiophen-2-yl)-3-hydroxy-propionamide] | 0.009 | 0.034 | – | – |
| CCOc1cc(-c2cc(NCCn3c(C)cc4c(OC)ccc(F)c43)ncn2)sc1NC(N)=O [Example 1075, (3-Ethoxy-5-{6-[2-(7-fluoro-4-methoxy-2-methyl-indol-1-yl)-ethylamino]-pyrimidin-4-yl}-thiophen-2-yl)-urea] | 0.007 | 0.049 | – | – |
| COc1ccc(F)c2c1cc(C#N)n2CCNc1cc(-c2cc3ccc(C(=O)O)cc3[nH]2)ncn1 [Example 1076, 2-(6-((2-(2-Cyano-7-fluoro-4-methoxy-1H-indol-1-yl)ethyl)amino)pyrimidin-4-yl)-1H-indole-6-carboxylic acid] | 0.006 | 0.039 | – | – |
| Cc1ccc(F)c2c1cc(C)n2CCNc1cc(-c2ccc(N)cc2)ncn1 [compound 1, [6-(4-Amino-phenyl)-pyrimidin-4-yl]-[2-(7-fluoro-2,4-dimethyl-indol-1-yl)-ethyl]-amine] | – | – | 0.05 | 0.616 |
| COc1nc(-c2cc(NCCn3c(C)cc4c(OC)ccc(F)c43)ncn2)cs1 [compound 2] | – | – | 0.267 | 0.251 |
| COc1ncc(-c2cc(NCCn3c(C)cc4c(OC)ccc(F)c43)ncn2)s1 [compound 3] | – | – | 0.1 | 0.769 |
| Cc1cc2ccccc2n1CCNc1cc(-c2cc(Cl)c(C(=O)O)s2)ncn1 [compound 5] | – | – | 0.005 | 0.629 |
| CCc1cc(-c2cc(NCCn3c(C)cc4ccccc43)ncn2)sc1C(=O)O [compound 6] | – | – | 0.003 | 0.911 |
